Data set [1] has as its target ATP-dependent translocase ABCB1 (Mus musculus, UniProt P21447). In words: TP_TRANSPORTER: efflux, inhibited by Verapamil in P388/ADR cells. In kind it is functional, cell-based.
Data set [2] has as its target Multidrug resistance-associated protein 1 (Homo sapiens, UniProt P33527). Kind of data set: TP_TRANSPORTER: efflux, inhibited by MK571 in PANC-1 cells. In kind it is functional, cell-based.

Data on 1 compound can be found in ChEMBL document CHEMBL2074455, “The fluorescent probe Bodipy-FL-verapamil is a substrate for both P-glycoprotein and multidrug resistance-related protein (MRP)-1” (J Histochem Cytochem, 2002).

Sequence of ATP-dependent translocase ABCB1 (P21447 whole entry): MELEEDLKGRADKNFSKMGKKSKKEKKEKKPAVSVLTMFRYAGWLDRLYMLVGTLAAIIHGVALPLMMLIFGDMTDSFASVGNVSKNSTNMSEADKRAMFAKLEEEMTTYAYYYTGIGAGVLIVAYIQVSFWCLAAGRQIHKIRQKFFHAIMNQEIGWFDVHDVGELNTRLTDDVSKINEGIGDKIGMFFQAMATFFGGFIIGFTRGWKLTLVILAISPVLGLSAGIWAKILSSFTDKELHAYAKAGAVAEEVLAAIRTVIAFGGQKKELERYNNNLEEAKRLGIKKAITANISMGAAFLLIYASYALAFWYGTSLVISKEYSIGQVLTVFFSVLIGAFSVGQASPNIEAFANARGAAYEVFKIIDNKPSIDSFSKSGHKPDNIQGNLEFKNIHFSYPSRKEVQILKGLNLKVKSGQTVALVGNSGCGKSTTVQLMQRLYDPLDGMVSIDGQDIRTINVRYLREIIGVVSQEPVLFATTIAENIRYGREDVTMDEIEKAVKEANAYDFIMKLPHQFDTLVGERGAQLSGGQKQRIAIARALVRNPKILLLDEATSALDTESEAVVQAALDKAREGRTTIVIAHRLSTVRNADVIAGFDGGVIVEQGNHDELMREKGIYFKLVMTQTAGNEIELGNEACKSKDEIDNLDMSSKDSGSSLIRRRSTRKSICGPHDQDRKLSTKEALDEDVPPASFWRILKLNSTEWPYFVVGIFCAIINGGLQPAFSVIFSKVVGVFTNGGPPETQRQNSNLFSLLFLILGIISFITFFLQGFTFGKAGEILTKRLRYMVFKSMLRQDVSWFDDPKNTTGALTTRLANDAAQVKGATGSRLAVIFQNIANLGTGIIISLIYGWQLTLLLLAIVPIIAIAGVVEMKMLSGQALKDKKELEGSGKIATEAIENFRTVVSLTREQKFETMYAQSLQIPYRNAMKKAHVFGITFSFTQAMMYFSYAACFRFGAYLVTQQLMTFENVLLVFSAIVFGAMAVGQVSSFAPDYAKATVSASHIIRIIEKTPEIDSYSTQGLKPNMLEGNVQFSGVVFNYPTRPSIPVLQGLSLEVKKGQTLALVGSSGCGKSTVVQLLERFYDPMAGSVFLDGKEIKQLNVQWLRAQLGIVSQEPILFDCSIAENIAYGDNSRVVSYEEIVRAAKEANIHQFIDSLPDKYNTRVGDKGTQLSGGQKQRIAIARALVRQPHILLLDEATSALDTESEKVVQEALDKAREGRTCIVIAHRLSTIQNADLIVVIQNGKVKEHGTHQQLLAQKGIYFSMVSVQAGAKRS
Sequence of Multidrug resistance-associated protein 1 (P33527 whole entry): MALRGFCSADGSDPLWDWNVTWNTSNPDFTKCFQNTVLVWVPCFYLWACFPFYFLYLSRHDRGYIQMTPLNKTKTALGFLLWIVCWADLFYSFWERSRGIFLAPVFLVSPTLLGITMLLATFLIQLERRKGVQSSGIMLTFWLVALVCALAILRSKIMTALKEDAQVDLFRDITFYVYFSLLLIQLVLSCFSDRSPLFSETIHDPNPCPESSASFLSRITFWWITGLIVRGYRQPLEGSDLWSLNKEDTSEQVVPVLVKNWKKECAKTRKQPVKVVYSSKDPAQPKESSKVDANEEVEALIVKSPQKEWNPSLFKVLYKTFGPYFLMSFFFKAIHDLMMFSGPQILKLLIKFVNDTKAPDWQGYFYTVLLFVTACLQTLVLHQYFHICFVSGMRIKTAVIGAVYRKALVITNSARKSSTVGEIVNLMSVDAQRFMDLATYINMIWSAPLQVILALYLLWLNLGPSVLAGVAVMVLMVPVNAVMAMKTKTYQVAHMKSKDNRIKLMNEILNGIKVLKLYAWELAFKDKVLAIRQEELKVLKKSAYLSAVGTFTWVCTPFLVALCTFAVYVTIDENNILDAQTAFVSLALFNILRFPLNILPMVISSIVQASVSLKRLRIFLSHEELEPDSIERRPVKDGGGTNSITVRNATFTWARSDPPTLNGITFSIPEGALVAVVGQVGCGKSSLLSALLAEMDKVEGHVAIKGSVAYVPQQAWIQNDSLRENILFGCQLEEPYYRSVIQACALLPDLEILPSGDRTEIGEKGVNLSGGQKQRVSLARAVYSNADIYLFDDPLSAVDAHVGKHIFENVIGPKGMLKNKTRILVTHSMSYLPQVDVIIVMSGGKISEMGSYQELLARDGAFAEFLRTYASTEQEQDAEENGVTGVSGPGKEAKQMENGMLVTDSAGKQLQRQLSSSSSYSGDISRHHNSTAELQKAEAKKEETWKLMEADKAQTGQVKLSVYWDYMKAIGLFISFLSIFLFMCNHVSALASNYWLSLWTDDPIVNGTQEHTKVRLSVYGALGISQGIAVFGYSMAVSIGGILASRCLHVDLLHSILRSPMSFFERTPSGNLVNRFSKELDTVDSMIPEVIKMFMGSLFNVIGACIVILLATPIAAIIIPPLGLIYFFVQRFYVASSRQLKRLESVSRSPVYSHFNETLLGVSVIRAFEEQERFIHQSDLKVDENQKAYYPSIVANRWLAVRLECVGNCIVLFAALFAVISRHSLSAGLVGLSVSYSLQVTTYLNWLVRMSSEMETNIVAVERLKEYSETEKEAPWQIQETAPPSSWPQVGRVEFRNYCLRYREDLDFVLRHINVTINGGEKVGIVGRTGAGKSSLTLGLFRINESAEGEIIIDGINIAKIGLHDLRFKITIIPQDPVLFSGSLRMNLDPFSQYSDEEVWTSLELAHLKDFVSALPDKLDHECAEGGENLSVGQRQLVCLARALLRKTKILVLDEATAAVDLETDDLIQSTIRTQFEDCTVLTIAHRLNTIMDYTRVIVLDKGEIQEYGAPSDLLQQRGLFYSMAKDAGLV

With `COc1ccc(CCN(C)CCCC(CNC(=O)NCC2=[N+]3C(=Cc4c(C)cc(C)n4[B-]3(F)F)C=C2)(c2ccc(OC)c(OC)c2)C(C)C)cc1OC` (configuration not stated), the Activity result in data set [1] and in data set [2] was “substrate [+]” each time.
